Measured values taken from paper PMC5707067, “Farnesyl phenolic enantiomers as natural MTH1 inhibitors from Ganoderma sinense” (Oncotarget, 2017).

Legend:
[1] = test system: human hepatic cells (Lo2); experiment: CCK8 cytotoxicity assay, Lo2; format: cell-based; details: CCK8, 48 h, normal tissue cell line
Source text: (§1) The growth inhibitory effects of the isolated farnesyl phenolic compounds (1–8) against carcinoma cell lines [human osteosarcoma cells (U2OS), human colorectal carcinoma cells (SW620), human ES-2 ovarian carcinoma cells (ES-2)] and normal tissue cell lines [human hepatic cells (Lo2), African green monkey kidney vero cells (Vero)] were further investigated using CCK8 assay method (Table 3).
(§2) Carcinoma cell lines [human osteosarcoma cells (U2OS), human colorectal carcinoma cells (SW620), human ES-2 ovarian carcinoma cells (ES-2)] and normal tissue cell lines [human hepatic cells (Lo2), African green monkey kidney Vero cells (Vero)] The U2OS, SW620, ES-2, Lo2 and Vero were obtained from ATCC (Manassas, VA, USA). The SW620 and Vero cells were cultured in Roswell Park Memorial Institute medium (RPMI), with 10% fetal bovine serum (Hyclone) and 1% penicillin-streptomycin (Sigma). Lo2, U2OS and ES-2 cells were grown in Dulbecco's modified eagle medium (DMEM), with 10% fetal bovine serum (Hyclone) and 1% penicillin-streptomycin (Sigma). All of these cells were cultured at 37°C in a humidified atmosphere with 5% CO2. For CCK8 assay cytotoxicity evaluation of compounds, all cells were separately plated at a density of 1 × 10^4 cells/well in a 96 well plate. Cells were cultivated at 37°C in 5% CO2 atmosphere for 24 h, then medium in the wells was replaced with fresh medium containing compounds which were diluted in 8 dilution steps covering the range from 200 μM to 1.5625 μM. And DMSO was used as negative control. After 48 h incubation, 10 μL of CCK8 solution was added to each well. After 30 min, the optical density (OD) of each well was measured at wavelength of 450 nm on spectrophotometer. Data were corrected for background (no-cell control) and expressed as a percentage of the value for untreated cells. The IC50 values of the isolated compounds were derived from the mean OD values of the triplicate tests versus the drug concentration curves.

[2] = test system: human colorectal carcinoma cells (SW620); experiment: CCK8 cytotoxicity assay, SW620; format: cell-based; details: CCK8, 48 h, carcinoma cell line
Source text: as §1, §2

[3] = test system: African green monkey kidney vero cells (Vero); experiment: CCK8 cytotoxicity assay, Vero; format: cell-based; details: CCK8, 48 h, normal tissue cell line
Source text: as §1, §2

[4] = test system: human ES-2 ovarian carcinoma cells (ES-2); experiment: CCK8 cytotoxicity assay, ES-2; format: cell-based; details: CCK8, 48 h, carcinoma cell line
Source text: as §1, §2

[5] = test system: human osteosarcoma cells (U2OS); experiment: CCK8 cytotoxicity assay, U2OS; format: cell-based; details: CCK8, 48 h, carcinoma cell line
Source text: as §1, §2

[6] = CCK8 cytotoxicity assay, Lo2; format: cell-based, human; details: human, Lo2 human hepatic cells (normal tissue cell line), CCK8, 48 h
Source text: as §1, §2

[7] = CCK8 cytotoxicity assay, Vero; format: cell-based, African green monkey; details: African green monkey, Vero kidney cells (normal tissue cell line), CCK8, 48 h
Source text: as §1, §2

MTH1 [8] = target: T1, MTH1 (Homo sapiens, UniProt P36639); experiment: Microscale thermophoresis (MST) binding assay
Experimental: Microscale thermophoresis method (MST) was employed to assay the binding affinity between the compounds and MTH1. […] The dissociation constant Kd values were automatically calculated by using the NT Analysis software (Nano Temper Technologies, München, Germany).
Recombinant human MTH1 was labeled with the Monolith NT™ Protein Labeling Kit RED (Cat#L001) according to the supplied labeling protocol [32]. Labelled MTH1 was kept constant at 100 nM, while all samples tested were diluted in a 20 mM HEPES (pH 7.5) and 0.05 (v/v) % Tween-20. Compounds were diluted in 12 dilution steps covering the range from 500 μM to 200 nM. After 10 min incubation at room temperature about 37°C, samples were loaded into Monolith™ standard-treated capillaries and the thermophoresis was measured at 25°C after 30 min incubation on a Monolith NT.115 instrument (NanoTemper Technologies, München, Germany). Laser power was set to 20% using 30 seconds on-time. The LED power was set to 100%. The dissociation constant Kd values were fitted by using the NTAnalysis software (NanoTemper Technologies, München, Germany). The Kd value of the binding was obtained in two ways. The first way was calculated by thermophoresis curve when there was no fluorescent change during the initial fluorescence scanning. The second way was calculated from the initial fluorescence scanning curve when compounds bound in the sites which directly interfered the fluorescence.

MTH1 [9] = target: T1, MTH1; experiment: Enzyme inhibition assay (8-oxo-dGTP hydrolysis, HPLC); format: biochemical; set-up: hexa-histidine (His6) (N, cleaved yes); made in house; host or cells: E. coli BL21 Star; details: 8-oxo-dGTP 25 μM, purified MTH1
Experimental: Microscale thermophoresis method (MST) was employed to assay the binding affinity between the compounds and MTH1. This technology can quantify protein-protein interactions or protein-small molecule interactions with high sensitivity through detecting fluorescent changes of molecules during thermophoresis.
To identify the efficacy of the eight compounds, an enzyme inhibition assay was carried out. […] Then the reaction was stop by the addition of 20 μL ice-cold Na2EDTA (50 mM). The reaction mixture was centrifugated at 15000 rpm at 4°C for 10 min. 20 μL of supernatant was injected on an HPLC column (Ultimate AQ-C18 RP-18e, 250 mm × 4.6 mm × 5 μm), and eluted isolate with 100 mM Na2HPO4-NaOH (pH 5.5)/MeOH 95:5 with flow rate 1 mL/min at column room of 30°C. […] Measurements were done in triplet, and IC50 values were calculated to compare the efficiency of various compounds.

[10] = Homo sapiens, Ovarian carcinoma cell

| SMILES | IC50 [1] | IC50 [2] | IC50 [3] | IC50 [4] | IC50 [5] | IC50 at 48 h [6] | IC50 ([2]; Homo sapiens, SW-620) | IC50 at 48 h [7] | Kd (MTH1 [8]) | IC50 (MTH1 [9]) | IC50 [4, 10] | IC50 ([5]; Homo sapiens, U2OS) |
| --- | --- | --- | --- | --- | --- | --- | --- | --- | --- | --- | --- | --- |
| C[C@H](Oc1cc(-c2cnn(C3CCNCC3)c2)cnc1N)c1c(Cl)ccc(F)c1Cl [(S)-crizotinib, reference compound] | 26 ± 1.2 µM | 17.5 ± 1.11 µM | 16.7 ± 1.15 µM | 9.09 ± 1.06 µM | 32.3 ± 1.28 µM | – | – | – | – | – | – | – |
| CO[C@@]1(c2cc(O)cc(O)c2)C=C(CCCC(CO)CC/C=C(\C)COC(=O)/C=C/c2ccc(O)cc2)C(=O)O1 (stereo partly drawn) [Compound 2, (5S)-3-{9-[(E)-coumaroyl]-4-hydroxymethyl-8-methyl-7-nonene}-5-(3,5-dihydroxyphenyl)-5-methoxy-2(5H)-furanone] | – | – | – | – | – | > 300 µM | 104 ± 1.07 µM | 260.4 ± 1.16 µM | 2.38 ± 0.663 µM | 11 ± 1.03 µM | 76.8 ± 1.09 µM | 54.2 ± 1.1 µM |
| C/C(=C\CCC(CO)CCCC1=C[C@H](c2cc(O)ccc2O)OC1=O)COC(=O)/C=C/c1ccc(O)cc1 (stereo partly drawn) [Compound 3, (5R)-3-{9-[(E)-coumaroyl]-4-hydroxymethyl-8-methyl-7-nonene}-5-(2,5-dihydroxyphenyl)-2(5H)-furanone] | – | – | – | – | – | > 300 µM | 70.9 ± 1.08 µM | > 300 µM | 246 ± 38.7 µM | 22.9 ± 1.04 µM | 90.6 ± 1.12 µM | 73.2 ± 1.24 µM |
| C/C(=C\CCC(CO)CCCC1=C[C@@H](c2cc(O)ccc2O)OC1=O)COC(=O)/C=C/c1ccc(O)cc1 (stereo partly drawn) [Compound 4, (5S)-3-{9-[(E)-coumaroyl]-4-hydroxymethyl-8-methyl-7-nonene}-5-(2,5-dihydroxyphenyl)-2(5H)-furanone] | – | – | – | – | – | 279.1 ± 2.17 µM | 56.5 ± 1.15 µM | > 300 µM | 4.63 ± 0.519 µM | 22.9 ± 1.07 µM | 64.2 ± 1.28 µM | 66.4 ± 1.11 µM |
| CO[C@]1(c2cc(O)ccc2O)C=C(CCCC(CO)CC/C=C(\C)COC(=O)/C=C/c2ccc(O)cc2)C(=O)O1 (stereo partly drawn) [Compound 5, (5R)-3-{9-[(E)-coumaroyl]-4-hydroxymethyl-8-methyl-7-nonene}-5-(2,5-dihydroxyphenyl)-5-methoxy-2(5H)-furanone] | – | – | – | – | – | > 300 µM | – | > 300 µM | 296 ± 13.3 µM | 16.3 ± 1.03 µM | 80.1 ± 3.56 µM | 64.4 ± 1.08 µM |
| CO[C@@]1(c2cc(O)ccc2O)C=C(CCCC(CO)CC/C=C(\C)COC(=O)/C=C/c2ccc(O)cc2)C(=O)O1 (some centres unmarked) [Compound 6] | – | – | – | – | – | > 300 µM | 53.7 ± 1.06 µM | > 300 µM | 113 ± 25.4 µM | 8.62 ± 1.03 µM | 37.3 ± 3.56 µM | 57.8 ± 1.07 µM |
| CO[C@]1(c2cc(O)cc(O)c2)C=C(CC/C=C(\CO)CC/C=C(\C)COC(=O)/C=C/c2ccc(O)cc2)C(=O)O1 [Compound 7] | – | – | – | – | – | > 300 µM | 101 ± 1.07 µM | > 300 µM | 103 ± 32.1 µM | 28.5 ± 1.05 µM | 74.5 ± 1.17 µM | 96.3 ± 1.13 µM |
| CO[C@@]1(c2cc(O)cc(O)c2)C=C(CC/C=C(\CO)CC/C=C(\C)COC(=O)/C=C/c2ccc(O)cc2)C(=O)O1 [Compound 8] | – | – | – | – | – | > 300 µM | 55.2 ± 1.16 µM | > 300 µM | 210 ± 42.7 µM | 26.6 ± 1.03 µM | 60.9 ± 1.34 µM | 95.4 ± 1.05 µM |
